Test results from ChEMBL document CHEMBL4382231, “Chemical preparation, biological evaluation and 3D-QSAR of ethoxysulfuron derivatives as novel antifungal agents targeting acetohydroxyacid synthase” (Eur J Med Chem, 2019).
Converted amounts (≈) assume the structure as drawn. The source made the active and inactive calls. No cut-off for these calls is given here.

Key:
Candida albicans [1] = test: Antifungal activity against fluconazole-resistant Candida albicans isolate 17 cultured in YNB media after 48 hrs by broth microdilution method; type: functional
Candida albicans [2] = test: Antifungal activity against Candida albicans SC5314 cultured in YNB media after 24 hrs by broth microdilution method; type: functional; settings: SC5314, 24 h
[3] = Inhibition of Candida albicans AHAS catalytic subunit using pyruvate as substrate measured after 30 mins by colorimetric method
Candida parapsilosis [4] = test: Antifungal activity against Candida parapsilosis ATCC 22019 cultured in YNB media after 72 hrs by broth microdilution method; type: functional
Candida albicans [5] = test: Ratio of MIC for Candida albicans SC5314 cultured in RPMI 1640 media to MIC for Candida albicans SC5314 cultured in YNB media; type: functional
Candida albicans [6] = test: Antifungal activity against fluconazole-resistant Candida albicans isolate g5 cultured in YNB media after 24 hrs by broth microdilution method; type: functional
Candida albicans [7] = test: Antifungal activity against fluconazole-resistant Candida albicans isolate 17 cultured in YNB media after 72 hrs by broth microdilution method; type: functional
Saccharomyces cerevisiae [8] = test: Antifungal activity against Saccharomyces cerevisiae SC XH1549 cultured in YNB media after 24 hrs by broth microdilution method; type: functional; settings: SC XH1549, 24 h
Candida albicans [9] = test: Antifungal activity against Candida albicans SC5314 cultured in YNB media after 72 hrs by broth microdilution method; type: functional
Candida albicans [10] = test: Antifungal activity against Candida albicans SC5314 cultured in RPMI 1640 media after 24 hrs by broth microdilution method; type: functional; settings: SC5314, 24 h
Candida albicans [11] = test: Antifungal activity against fluconazole-resistant Candida albicans isolate g5 cultured in YNB media after 48 hrs by broth microdilution method; type: functional
Candida albicans [12] = test: Antifungal activity against fluconazole-resistant Candida albicans isolate g5 cultured in YNB media after 72 hrs by broth microdilution method; type: functional
Candida parapsilosis [13] = test: Antifungal activity against Candida parapsilosis ATCC 22019 cultured in YNB media after 24 hrs by broth microdilution method; type: functional; settings: Lodderomyces parapsilosis, ATCC 22019, 24 h
Candida albicans [14] = test: Antifungal activity against Candida albicans SC5314 cultured in YNB media after 48 hrs by broth microdilution method; type: functional
Saccharomyces cerevisiae [15] = test: Antifungal activity against Saccharomyces cerevisiae SC XH1549 cultured in YNB media after 72 hrs by broth microdilution method; type: functional
Saccharomyces cerevisiae [16] = test: Antifungal activity against Saccharomyces cerevisiae SC XH1549 cultured in YNB media after 48 hrs by broth microdilution method; type: functional
Candida albicans [17] = test: Antifungal activity against fluconazole-resistant Candida albicans isolate 17 cultured in YNB media after 24 hrs by broth microdilution method; type: functional
Candida albicans [18] = test: Antifungal activity against Candida albicans SC5314 infected in Caenorhabditis elegans assessed as mortality at 20 nM after 24 hrs by propidium iodide staining based fluorescence microscopic analysis (reference value: 17%); type: functional
Candida parapsilosis [19] = test: Antifungal activity against Candida parapsilosis ATCC 22019 cultured in YNB media after 48 hrs by broth microdilution method; type: functional
[20] = Toxicity in topically applied rabbit; design: species or system Oryctolagus cuniculus; settings: in vivo, topical or ocular
[21] = Toxicity in po dosed rat; type: organism-based; settings: in vivo
[22] = Lodderomyces parapsilosis, ATCC 22019, 72 h
[23] = Lodderomyces parapsilosis, ATCC 22019, 48 h

| SMILES | MIC (Candida albicans [1]; isolate 17, 48 h) [µg/mL] | MIC (Candida albicans [2]) [µg/mL] | Ki [3] [nM] | pKi [3] | MIC (Candida parapsilosis [4]; [22]) [µg/mL] | MIC (Candida albicans [6]; isolate g5, 24 h) [µg/mL] | MIC (Candida albicans [7]; isolate 17, 72 h) [µg/mL] | MIC (Saccharomyces cerevisiae [8]) [µg/mL] | MIC (Candida albicans [9]; SC5314, 72 h) [µg/mL] | MIC (Candida albicans [10]) [µg/mL] | MIC (Candida albicans [11]; isolate g5, 48 h) [µg/mL] | MIC (Candida albicans [12]; isolate g5, 72 h) [µg/mL] | MIC (Candida parapsilosis [13]) [µg/mL] | MIC (Candida albicans [14]; SC5314, 48 h) [µg/mL] | MIC (Saccharomyces cerevisiae [15]; SC XH1549, 72 h) [µg/mL] | MIC (Saccharomyces cerevisiae [16]; SC XH1549, 48 h) [µg/mL] | MIC (Candida albicans [17]; isolate 17, 24 h) [µg/mL] | MIC (Candida parapsilosis [19]; [23]) [µg/mL] | other results |
| --- | --- | --- | --- | --- | --- | --- | --- | --- | --- | --- | --- | --- | --- | --- | --- | --- | --- | --- | --- |
| CCOC(=O)c1ccccc1OS(=O)(=O)[N-]C(=O)Nc1nc(OC)cc(OC)n1.[Na+] | 5 | 1.25 | 6.7 | 8.17 | 2.5 | 2.5 | 5 | 2.5 | 2.5 | 25 | 2.5 | 2.5 | 1.25 | 2.5 | 5 | 5 | 2.5 | 2.5 | Ratio IC50 (Candida albicans [5]): 20; Activity (Candida albicans [18]): 7% |
| C[C@@H]1[C@H](O)[C@@H](C)/C=C/C=C/C=C/C=C/C=C/C=C/C=C/[C@H](O[C@@H]2O[C@H](C)[C@@H](O)[C@H](N)[C@@H]2O)C[C@@H]2O[C@](O)(C[C@@H](O)C[C@@H](O)[C@H](O)CC[C@@H](O)C[C@@H](O)CC(=O)O[C@H]1C)C[C@H](O)[C@H]2C(=O)O [AMPHOTERICIN B] |  |  |  |  | 2.5 (≈ 2.71 µM) |  |  | 2.5 (≈ 2.71 µM) |  | 1.56 (≈ 1.69 µM) |  |  | 2.5 (≈ 2.71 µM) |  | 2.5 (≈ 2.71 µM) | 2.5 (≈ 2.71 µM) |  | 2.5 (≈ 2.71 µM) |  |
| CCOC(=O)c1ccccc1OS(=O)(=O)NC(=O)Nc1nc(OC)cc(OC)n1 | 5 (≈ 11.7 µM) | 1.25 (≈ 2.93 µM) | 6.3 |  | 2.5 (≈ 5.86 µM) | 2.5 (≈ 5.86 µM) | 5 (≈ 11.7 µM) | 2.5 (≈ 5.86 µM) | 2.5 (≈ 5.86 µM) |  | 2.5 (≈ 5.86 µM) | 2.5 (≈ 5.86 µM) | 1.25 (≈ 2.93 µM) | 2.5 (≈ 5.86 µM) | 5 (≈ 11.7 µM) | 5 (≈ 11.7 µM) | 2.5 (≈ 5.86 µM) | 2.5 (≈ 5.86 µM) |  |
| OC(Cn1cncn1)(Cn1cncn1)c1ccc(F)cc1F [FLUCONAZOLE] |  | 0.25 (≈ 0.816 µM) |  |  |  |  |  | 0.25 (≈ 0.816 µM) |  | 0.25 (≈ 0.816 µM) |  |  | 0.25 (≈ 0.816 µM) |  |  |  |  |  | MIC (Candida albicans [1]): inactive; MIC (Candida parapsilosis [4]): inactive; MIC (Candida albicans [6]): inactive; MIC (Candida albicans [7]): inactive; MIC (Candida albicans [9]): inactive; MIC (Candida albicans [11]): inactive; MIC (Candida albicans [12]): inactive; MIC (Candida albicans [14]): inactive; MIC (Saccharomyces cerevisiae [15]): inactive; MIC (Saccharomyces cerevisiae [16]): inactive; MIC (Candida albicans [17]): inactive; Activity (Candida albicans [18]): 5%; MIC (Candida parapsilosis [19]): inactive |
| COc1cc(OC)nc(NC(=O)[N-]S(=O)(=O)Oc2ccccc2OCCI)n1.[Na+] | 10 | 2.5 | 125 | 6.9 | 20 | 5 | 20 | 80 | 10 | 50 | 10 | 20 | 5 | 5 | > 80 | > 80 | 5 | 20 | Ratio IC50 (Candida albicans [5]): 20 |
| CCOC(=O)c1ccccc1S(=O)(=O)NC(=O)Nc1nc(Cl)cc(OC)n1 [CHLORIMURON ETHYL] |  |  |  |  |  |  |  |  |  |  |  |  |  |  |  |  |  |  | LD50 [20]: > 2000 mg/kg; LD50 [21]: > 4000 mg/kg; Activity (Candida albicans [18]): 8% |
| CCOc1ccccc1OS(=O)(=O)NC(=O)Nc1nc(OC)cc(OC)n1 [ETHOXYSULFURON] | 2.5 (≈ 6.28 µM) | 0.625 (≈ 1.57 µM) | 21.6 | 7.66 | 2.5 (≈ 6.28 µM) | 1.25 (≈ 3.14 µM) | 2.5 (≈ 6.28 µM) | 5 (≈ 12.6 µM) | 1.25 (≈ 3.14 µM) | 12.5 (≈ 31.4 µM) | 1.25 (≈ 3.14 µM) | 2.5 (≈ 6.28 µM) | 1.25 (≈ 3.14 µM) | 1.25 (≈ 3.14 µM) | 5 (≈ 12.6 µM) | 5 (≈ 12.6 µM) | 1.25 (≈ 3.14 µM) | 2.5 (≈ 6.28 µM) | Activity (Candida albicans [18]): 3% |
| CCOc1ccccc1OS(=O)(=O)[N-]C(=O)Nc1nc(OC)cc(OC)n1.[Na+] | 2.5 | 0.625 | 22.1 |  | 2.5 | 1.25 | 2.5 | 5 | 1.25 |  | 1.25 | 2.5 | 1.25 | 1.25 | 5 | 5 | 1.25 | 2.5 |  |
| Cc1cc(Cl)nc(NC(=O)[N-]S(=O)(=O)Oc2ccccc2C(=O)Oc2ccccc2)n1.[Na+] |  | > 100 | > 50000 |  |  |  |  |  |  | > 100 |  |  |  |  |  |  |  |  |  |
| COc1cc(Br)nc(NC(=O)[N-]S(=O)(=O)Oc2ccccc2OCCI)n1.[Na+] |  | > 100 | 478 | 6.33 |  |  |  |  |  | > 100 |  |  |  |  |  |  |  |  |  |
| CCOC(=O)c1cccc(OS(=O)(=O)[N-]C(=O)Nc2nc(C)cc(C)n2)c1.[Na+] |  | > 100 | 36800 | 4.44 |  |  |  |  |  | > 100 |  |  |  |  |  |  |  |  |  |
| COc1cc(OC)nc(NC(=O)[N-]S(=O)(=O)Oc2ccccc2C(=O)OCC(F)(F)F)n1.[Na+] |  | 10 | 78 | 7.11 |  |  |  |  |  | > 100 |  |  |  |  |  |  |  |  |  |
| CCCOC(=O)c1ccccc1OS(=O)(=O)[N-]C(=O)Nc1nc(C)cc(OC)n1.[Na+] |  | > 100 | 1490 |  |  |  |  |  |  | > 100 |  |  |  |  |  |  |  |  |  |
| Cc1cc(Cl)nc(NC(=O)[N-]S(=O)(=O)Oc2ccccc2C(=O)OC(C)C)n1.[Na+] |  | > 100 | 22900 | 4.64 |  |  |  |  |  | > 100 |  |  |  |  |  |  |  |  |  |
| COc1cc(OC)nc(NC(=O)[N-]S(=O)(=O)Oc2ccccc2C(=O)OCCI)n1.[Na+] |  | > 100 | 95 | 7.02 |  |  |  |  |  | > 100 |  |  |  |  |  |  |  |  |  |
